# Data: patent US12377104B1, “Methods for treating a fatty liver disease” (Madrigal Pharmaceuticals, Inc., priority 2024, dated 2025)
# System: NASH patients
# Experiment: MAESTRO-NASH: efficacy by baseline body weight and BMI
# Format: in vivo, human
# Conditions: for ≥30% Reduction in MRI-PDFF at Week 52, Assessment (%) / ≥120% Increase in SHBG at Week 52, Assessment (%): post hoc
# Method: In the MAESTRO-NASH study, randomization to 80 mg and 100 mg doses was equal across all body weights. Analyses were conducted to provide additional evidence of a relationship between resmetirom dose, baseline body weight and body mass index (BMI), and safety/efficacy readouts. […] The only variable that determined exposure to resmetirom in the NASH population was body weight. […] Study median body weight was 100 kg. […] et al. (2024). CAP was stable over time, both doses showing a similar durable response (FIG. 30B).
# [1] = Week 52 Paired Biopsies, 80 mg, >100 kg
# [2] = Week 52 Paired Biopsies, 80 mg, ≤100 kg
# [3] = Week 52 Paired Biopsies, 100 mg, >100 kg
# [4] = Week 52 Paired Biopsies, 100 mg, ≤100 kg
# [5] = Week 52 Primary Population, 80 mg, >100 kg
# [6] = Week 52 Primary Population, 80 mg, ≤100 kg
# [7] = Week 52 Primary Population, 100 mg, >100 kg
# [8] = Week 52 Primary Population, 100 mg, ≤100 kg
compound,measurement,setting,value
"CC(C)c1cc(Oc2c(Cl)cc(-n3nc(C#N)c(=O)[nH]c3=O)cc2Cl)n[nH]c1=O [Resmetirom, 2-(3,5-dichloro-4-((5-isopropyl-6-oxo-1,6-dihydropyridazin-3-yl)oxy)phenyl)-3,5-dioxo-2,3,4,5-tetrahydro-1,2,4-triazine-6-carbonitrile]",Week 52 Paired Biopsies Consensus NASH Resolution Responder: number,"100 mg, 80-<90 kg",16
same,Week 52 Paired Biopsies Consensus NASH Resolution Responder: percentage (in parentheses),"100 mg, 80-<90 kg",(39.0)
same,≥30% reduction in MRI-PDFF at Week 52: number of patients,"100 mg, 80-<90 kg",30
same,≥30% reduction in MRI-PDFF at Week 52: percentage of patients (in parentheses),"100 mg, 80-<90 kg",(76.9)
same,≥120% increase in SHBG at Week 52: number of patients,"100 mg, 80-<90 kg",27
same,≥120% increase in SHBG at Week 52: percentage of patients (in parentheses),"100 mg, 80-<90 kg",(62.8)
same,Discontinued Study Prior to Week 52: number,"100 mg, 90-<100 kg",15
same,Discontinued Study Prior to Week 52: percentage (in parentheses),"100 mg, 90-<100 kg",(25.4)
same,Week 52 MITT Consensus Fibrosis Improvement Responder: number,"100 mg, 90-<100 kg",12
same,Week 52 MITT Consensus Fibrosis Improvement Responder: percentage (in parentheses),"100 mg, 90-<100 kg",(20.3)
same,Week 52 MITT Consensus NASH Resolution Responder: number,"100 mg, 90-<100 kg",13
same,Week 52 MITT Consensus NASH Resolution Responder: percentage (in parentheses),"100 mg, 90-<100 kg",(22.0)
same,Week 52 Paired Biopsies Consensus Fibrosis Improvement Responder: number,"100 mg, 90-<100 kg",12
same,Week 52 Paired Biopsies Consensus Fibrosis Improvement Responder: percentage (in parentheses),"100 mg, 90-<100 kg",(29.3)
same,Week 52 Paired Biopsies Consensus NASH Resolution Responder: number,"100 mg, 90-<100 kg",13
same,Week 52 Paired Biopsies Consensus NASH Resolution Responder: percentage (in parentheses),"100 mg, 90-<100 kg",(31.7)
same,≥30% reduction in MRI-PDFF at Week 52: number of patients,"100 mg, 90-<100 kg",24
same,≥30% reduction in MRI-PDFF at Week 52: percentage of patients (in parentheses),"100 mg, 90-<100 kg",(70.6)
same,≥120% increase in SHBG at Week 52: number of patients,"100 mg, 90-<100 kg",28
same,≥120% increase in SHBG at Week 52: percentage of patients (in parentheses),"100 mg, 90-<100 kg",(63.6)
same,Discontinued Study Prior to Week 52: number,"100 mg, 100-<110 kg",9
same,Discontinued Study Prior to Week 52: percentage (in parentheses),"100 mg, 100-<110 kg",(17.6)
same,Week 52 MITT Consensus Fibrosis Improvement Responder: number,"100 mg, 100-<110 kg",14
same,Week 52 MITT Consensus Fibrosis Improvement Responder: percentage (in parentheses),"100 mg, 100-<110 kg",(27.5)
same,Week 52 MITT Consensus NASH Resolution Responder: number,"100 mg, 100-<110 kg",16
same,Week 52 MITT Consensus NASH Resolution Responder: percentage (in parentheses),"100 mg, 100-<110 kg",(31.4)
same,Week 52 Paired Biopsies Consensus Fibrosis Improvement Responder: number,"100 mg, 100-<110 kg",14
same,Week 52 Paired Biopsies Consensus Fibrosis Improvement Responder: percentage (in parentheses),"100 mg, 100-<110 kg",(35.0)
same,Week 52 Paired Biopsies Consensus NASH Resolution Responder: number,"100 mg, 100-<110 kg",16
same,Week 52 Paired Biopsies Consensus NASH Resolution Responder: percentage (in parentheses),"100 mg, 100-<110 kg",(40.0)
same,≥30% reduction in MRI-PDFF at Week 52: number of patients,"100 mg, 100-<110 kg",29
same,≥30% reduction in MRI-PDFF at Week 52: percentage of patients (in parentheses),"100 mg, 100-<110 kg",(70.7)
same,≥120% increase in SHBG at Week 52: number of patients,"100 mg, 100-<110 kg",27
same,≥120% increase in SHBG at Week 52: percentage of patients (in parentheses),"100 mg, 100-<110 kg",(62.8)
same,Discontinued Study Prior to Week 52: number,"100 mg, <80 kg",12
same,Discontinued Study Prior to Week 52: percentage (in parentheses),"100 mg, <80 kg",(21.4)
same,Week 52 MITT Consensus Fibrosis Improvement Responder: number,"100 mg, <80 kg",16
same,Week 52 MITT Consensus Fibrosis Improvement Responder: percentage (in parentheses),"100 mg, <80 kg",(28.6)
same,Week 52 MITT Consensus NASH Resolution Responder: number,"100 mg, <80 kg",14
same,Week 52 MITT Consensus NASH Resolution Responder: percentage (in parentheses),"100 mg, <80 kg",(25.0)
same,Week 52 Paired Biopsies Consensus Fibrosis Improvement Responder: number,"100 mg, <80 kg",16
same,Week 52 Paired Biopsies Consensus Fibrosis Improvement Responder: percentage (in parentheses),"100 mg, <80 kg",(40.0)
same,Week 52 Paired Biopsies Consensus NASH Resolution Responder: number,"100 mg, <80 kg",14
same,Week 52 Paired Biopsies Consensus NASH Resolution Responder: percentage (in parentheses),"100 mg, <80 kg",(35.0)
same,≥30% reduction in MRI-PDFF at Week 52: number of patients,"100 mg, <80 kg",24
same,≥30% reduction in MRI-PDFF at Week 52: percentage of patients (in parentheses),"100 mg, <80 kg",(64.9)
same,≥120% increase in SHBG at Week 52: number of patients,"100 mg, <80 kg",30
same,≥120% increase in SHBG at Week 52: percentage of patients (in parentheses),"100 mg, <80 kg",(68.2)
same,"≥30% Reduction in MRI-PDFF at Week 52, Assessment (%)","100 mg, body weight >100 kg",72.5%
same,"≥120% Increase in SHBG at Week 52, Assessment (%)","100 mg, body weight >100 kg",55.0%
same,"≥30% Reduction in MRI-PDFF at Week 52, Assessment (%)","100 mg, body weight ≤100 kg",71.7%
same,"≥120% Increase in SHBG at Week 52, Assessment (%)","100 mg, body weight ≤100 kg",64.2%
same,Discontinued Study Prior to Week 52: number,"100 mg, ≥110 kg",18
same,Discontinued Study Prior to Week 52: percentage (in parentheses),"100 mg, ≥110 kg",(16.7)
same,Week 52 MITT Consensus Fibrosis Improvement Responder: number,"100 mg, ≥110 kg",27
same,Week 52 MITT Consensus Fibrosis Improvement Responder: percentage (in parentheses),"100 mg, ≥110 kg",(25.0)
same,Week 52 MITT Consensus NASH Resolution Responder: number,"100 mg, ≥110 kg",30
same,Week 52 MITT Consensus NASH Resolution Responder: percentage (in parentheses),"100 mg, ≥110 kg",(27.8)
same,Week 52 Paired Biopsies Consensus Fibrosis Improvement Responder: number,"100 mg, ≥110 kg",27
same,Week 52 Paired Biopsies Consensus Fibrosis Improvement Responder: percentage (in parentheses),"100 mg, ≥110 kg",(31.4)
same,Week 52 Paired Biopsies Consensus NASH Resolution Responder: number,"100 mg, ≥110 kg",30
same,Week 52 Paired Biopsies Consensus NASH Resolution Responder: percentage (in parentheses),"100 mg, ≥110 kg",(34.9)
same,≥30% reduction in MRI-PDFF at Week 52: number of patients,"100 mg, ≥110 kg",53
same,≥30% reduction in MRI-PDFF at Week 52: percentage of patients (in parentheses),"100 mg, ≥110 kg",(74.6)
same,≥120% increase in SHBG at Week 52: number of patients,"100 mg, ≥110 kg",45
same,≥120% increase in SHBG at Week 52: percentage of patients (in parentheses),"100 mg, ≥110 kg",(50.6)
same,patients with worsening of VCTE,VCTE responder analyses at 1-3 years,less than 10%
same,"Consensus Fibrosis Improvement, Assessment (%)",[1],22.5%
same,"Consensus NASH Resolution, Assessment (%)",[1],27.0%
same,"Consensus Fibrosis Improvement, Assessment (%)",[2],35.4%
same,"Consensus NASH Resolution, Assessment (%)",[2],32.0%
same,"Consensus Fibrosis Improvement, Assessment (%)",[3],32.5%
same,"Consensus NASH Resolution, Assessment (%)",[3],35.8%
same,"Consensus Fibrosis Improvement, Assessment (%)",[4],33.6%
same,"Consensus NASH Resolution, Assessment (%)",[4],36.0%
same,"Consensus Fibrosis Improvement, Assessment (%)",[5],17.4%
same,"Consensus NASH Resolution, Assessment (%)",[5],20.8%
same,"Consensus Fibrosis Improvement, Assessment (%)",[6],29.2%
same,"Consensus NASH Resolution, Assessment (%)",[6],26.4%
same,"Consensus Fibrosis Improvement, Assessment (%)",[7],25.6%
same,"Consensus NASH Resolution, Assessment (%)",[7],28.2%
same,"Consensus Fibrosis Improvement, Assessment (%)",[8],25.1%
same,"Consensus NASH Resolution, Assessment (%)",[8],26.9%
